{"source": "patent US20190369111A1", "about": "“MOLECULAR KINETICS EVALUATION METHOD AND SCREENING METHOD” (Tokyo University of Science Foundation, priority 2016, published 2019)", "key": {"[1]": {"molecular_target": "T1, DHFR protein (Mus musculus, UniProt P00375)", "T1 construct": "administered intraperitoneally to C57BL/6J wild-type mice; from tissue; host or cells: C57BL/6J wild-type mice: liver, kidneys, heart", "T1 sequence (P00375 1-187)": "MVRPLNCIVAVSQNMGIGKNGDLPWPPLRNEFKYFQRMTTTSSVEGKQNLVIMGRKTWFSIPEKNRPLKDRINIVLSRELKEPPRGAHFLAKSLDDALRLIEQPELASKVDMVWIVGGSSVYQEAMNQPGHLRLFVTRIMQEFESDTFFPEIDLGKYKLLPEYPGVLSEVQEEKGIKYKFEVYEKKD", "experiment": "Degradation of DHFR protein in each tissue of mouse after administration, Western blot analysis", "format": "in vivo", "method": "MTX-CANDDY_MLN was dissolved in DMSO immediately before administration, and then dissolved in corn oil (Code No. 25606-55, Nacalai Tesque) so that the concentration of DMSO was 10 vol %, and then a dose of 50 mg/kg body weight or 100 mg/kg body weight was administered intraperitoneally to C57BL/6J wild-type mice (7 weeks old, male) (CLEA Japan, Inc.) (n=3). […] As a control, an injection carrier (corn oil containing 10 vol % DMSO) was used. The mice were kept under an environment of ad libitum access to food and water. The mice were dissected under deep anesthesia by Somnopentyl (Kyoritsu Seiyaku Corporation) 24 hours after administration. Abdominal section was performed, and then the liver, kidneys, and heart were sequentially extracted and flash frozen in liquid nitrogen. Each tissue frozen in liquid nitrogen was stored in a deep freezer at −80° C.\nThe frozen tissues (0.04 g) were each frozen and triturated, and then 980 μL of 1×TKM tissue lysis buffer (50 mM triethanolamine (pH 7.8), 50 mM KCl, 5 mM MgCl2, 0.25 M sucrose, 1 mM PMSF, protein inhibitors cocktail-EDTA free (Code No. 03969-21, Nacalai Tesque, Inc.), 1 mM DTT, and 5 μL/mL recombinant RNase inhibitor (40 U/μL, Cat No. 2313A, Lot No. K8402DA, TAKARA Bio)) were added, and dissolved by rotation for 15 minutes (1 rpm, 25° C.). Then, the resultant product was subjected to centrifugation (at 3000 rpm×15 minutes, 4° C.), and the supernatants (each tissue extract) were collected. The concentration of proteins in each tissue extract was quantified with a spectrophotometer using each tissue extract that had been diluted 20 times using DEPC-treated water.\nEach tissue extract collected was subjected to Western blot analysis. An SDS-PAGE gel was prepared using TGX™ FastCast™ Acrylamide Kit, 12% (Bio-Rad). Electrophoresis samples were prepared in a 6×SDS-PAGE sample buffer (62.5 mM Tris-HCl pH 6.8, 2% SDS, 5% 2-mercaptoethanol, 10% glycerol, 0.25% BPB), and placed on a heat block at 95° C. for 5 minutes. The electrophoresis samples prepared were applied at 50 μg/well for detection of GAPDH, and applied at 100 μg/well for other detection. Electrophoresis was performed at 160 V for 60 minutes (electrophoresis buffer; 195 mM glycine, 25 mM Tris).\nAfter electrophoresis, proteins were transferred to a PVDF membrane (Immobion™-P, Millipore) under conditions of 100 V and 1.5 hours using a tank-type blotting device and a transfer buffer (25 mM Tris-HCl, 195 mM glycine, 0.01% SDS, 15% methanol). […] Subsequently, the membrane was treated with a chemiluminescence reagent Immobilon™ Western (Millipore), and then chemiluminescence was detected using a lumino image analyzer LAS-3000 (FUJIFILM Corporation). Detected bands were quantified with an image processing software ImageJ (NIH)."}, "[2]": {"molecular_target": "T2, endogenous DHFR protein (Homo sapiens, UniProt P00374)", "T2 construct": "degradation (knockdown) of an endogenous DHFR protein in HeLa cells; endogenous in cells; host or cells: HeLa cells", "T2 sequence (P00374 1-187)": "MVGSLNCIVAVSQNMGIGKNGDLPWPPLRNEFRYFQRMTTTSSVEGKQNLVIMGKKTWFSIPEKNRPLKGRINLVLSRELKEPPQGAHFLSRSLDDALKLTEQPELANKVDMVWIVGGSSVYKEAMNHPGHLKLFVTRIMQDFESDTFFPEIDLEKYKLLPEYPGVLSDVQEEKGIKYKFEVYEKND", "experiment": "Degradation of endogenous DHFR protein in HeLa cells, Western blot analysis", "format": "cell-based", "details": "50 μM, 100 μM or 200 μM, 16 hours after addition"}, "[3]": {"molecular_target": "T3, catalytic subunit β5 of the proteasome (chymotrypsin-like activity) (Homo sapiens, UniProt P28074)", "T3 construct": "purchased Bioscience", "experiment": "20S proteasome inhibitory activity, catalytic subunit β5", "format": "biochemical", "details": "AMC fluorescence substrate", "method": "(§1) For evaluation, 20S Proteasome StressXpress™ Assay Kit Gold (Bioscience) was used. AMC was measured by using Multi-Detection Microplate Reader (Synergy HT, BIO-TEK). The AMC was produced by cleaving the C-terminus of an AMC-binding proteasome fluorescence substrate specific to β subunits of a 20S proteasome, including β5 (chymotrypsin-like activity), β2 (trypsin-like activity), and β1 (caspase-like activity). The measuring wavelengths were 360 nm for excitation light (Ex.), and 460 nm for fluorescence (Em.).\n(§2) In Reference Example 11, as in Reference Example 4, a proteasome inhibitory activity of TMP-CANDDY_ALLN and an affinity of TMP-CANDDY_ALLN with a proteasome were evaluated."}, "[4]": {"molecular_target": "T4, catalytic subunit β2 of the proteasome (trypsin-like activity) (Homo sapiens, UniProt Q99436)", "T4 construct": "purchased Bioscience", "experiment": "20S proteasome inhibitory activity, catalytic subunit β2", "format": "biochemical", "details": "AMC fluorescence substrate", "method": "as §1, §2"}, "[5]": {"molecular_target": "T5, catalytic subunit β1 of a proteasome (caspase-like activity) (Homo sapiens, UniProt P28072)", "T5 construct": "purchased Bioscience", "experiment": "20S proteasome inhibitory activity, catalytic subunit β1", "format": "biochemical", "details": "AMC fluorescence substrate", "method": "as §1, §2"}, "[6]": {"molecular_target": "T6, 20S proteasome (Homo sapiens, UniProt P28072+P28074+Q99436)", "T6 construct": "purchased Bioscience", "experiment": "Affinity with a proteasome evaluated from 20S proteasome assay kit", "format": "biochemical", "details": "suggested from concentration dependent inhibitory activity against β1, β2, β5", "method": "In Reference Example 2, the proteasome inhibitory activity of TMP-CANDDY_DMT and the affinity of TMP-CANDDY_DMT with a proteasome were evaluated. As a positive control, MG-132 as a proteasome inhibitor was used.\nas §1, §2"}, "[7]": {"molecular_target": "T7, ecDHFR protein (Escherichia coli, UniProt P0ABQ4)", "T7 construct": "expressed in transfected cells; host or cells: HeLa cells, transient transfection with pMIR-DsRed-IRES-ecDHFR-HA-GFP", "format": "cell-based, human", "details": "HeLa cells"}, "[8]": {"molecular_target": "T7, ecDHFR protein", "format": "cell-based, human", "details": "HeLa cells, 24 hours after addition, vs control (DMSO)"}, "[9]": {"molecular_target": "T5, catalytic subunit β1 of a proteasome (caspase-like activity)", "details": "reported by Kaiser, M. et al., 2004; patent's result consistent; cited from earlier work"}}, "note": "Non-standard residues stand in square brackets, D forms with d. Residues, ends and D or L forms follow the SMILES beside them. Nle = CCCC[C@H](N)C(=O)O"}
{"smiles": "CC(C)C[C@H](NC(=O)CNC(=O)c1cc(Cl)ccc1Cl)C(=O)NCCCCCCNC(=O)CC[C@H](NC(=O)c1ccc(N(C)Cc2cnc3nc(N)nc(N)c3n2)cc1)C(=O)O", "note": "[MTX-CANDDY_MLN]", "values": [{"measurement": "amount of DHFR protein in heart", "setting": "[1]; intraperitoneal 50 or 100 mg/kg body weight, 24 hours after administration, heart", "result": "reduction in the amount of the DHFR protein was not found"}, {"measurement": "amount of DHFR protein in kidneys", "setting": "[1]; intraperitoneal 50 or 100 mg/kg body weight, 24 hours after administration, kidneys", "result": "reduced in a concentration dependent manner"}, {"measurement": "amount of DHFR protein in liver", "setting": "[1]; intraperitoneal 50 or 100 mg/kg body weight, 24 hours after administration, liver", "result": "reduced in a concentration dependent manner"}, {"measurement": "transfer property to tissues (molecular kinetics)", "setting": "[1]; suggested from DHFR degradation in tissues", "result": "showed a higher transfer property in the liver and kidneys, as compared with the heart"}, {"measurement": "amount of endogenous DHFR protein", "setting": "[2]", "result": "decreased in a concentration dependent manner"}]}
{"smiles": "COc1nc(NCCCCCCNC(=O)COc2c(OC)cc(Cc3cnc(N)nc3N)cc2OC)nc(OC)n1", "note": "[TMP-CANDDY_DMT]", "values": [{"measurement": "proteasome inhibitory activity against β5 (chymotrypsin-like activity)", "setting": "[3]", "result": "significantly lower proteasome inhibitory activity as compared with MG-132"}, {"measurement": "proteasome inhibitory activity against β2 (trypsin-like activity)", "setting": "[4]", "result": "significantly lower proteasome inhibitory activity as compared with MG-132"}, {"measurement": "proteasome inhibitory activity against β1 (caspase-like activity)", "setting": "[5]", "result": "significantly lower proteasome inhibitory activity as compared with MG-132"}, {"measurement": "affinity with a proteasome", "setting": "[6]", "result": "moderate affinity with a proteasome"}, {"measurement": "amount of ecDHFR protein", "setting": "[7]; 24 hours after addition, cycloheximide 50 μg/mL added after 12 hours", "result": "the amount of the ecDHFR protein was reduced"}, {"measurement": "degradation of ecDHFR protein when bortezomib is added together", "setting": "[7]; both TMP-CANDDY_DMT and bortezomib added, compared with TMP-CANDDY_DMT alone", "result": "degradation of the ecDHFR protein was inhibited"}, {"measurement": "degradation (knockdown) of ecDHFR protein (shift of GFP/DsRed ratio graph)", "setting": "[8]", "result": "degradation of the ecDHFR protein was induced"}]}
{"smiles": "CCCC[C@@H](C=O)NC(=O)[C@H](CC(C)C)NC(=O)[C@H](CC(C)C)NC(C)=O", "note": "[ALLN, Calpain inhibitor I] (Ac-Leu-Leu-[Nle]-aldehyde)", "values": [{"measurement": "inhibition of β1 (caspase-like activity)", "setting": "[9]", "result": "not inhibited"}]}
